Laboratory results published in patent US20220112149A1, “DRUG DESIGN METHOD ASSOCIATED WITH NATURAL PRODUCTS, PENTACYCLIC TRITERPENOID COMPOUND, PREPARATION METHOD AND APPLICATIONS THEREOF” (Huazhong Agricultural University, priority 2020, published 2022).

What was measured:
[1] = tested on: ICAM-1 expression in HMEC-1 cells; assay: LPS-induced ICAM-1 expression in HMEC-1 cells, flow cytometry; type: cell-based, human
Procedure: (3) Screening candidate molecules with the strongest ICAM-1 inhibitory activity by simulating the physiological model of inflammation that human microvascular endothelial cells (HMEC-1) expressing cell adhesion molecules (ICAM-1) mediate lymphocytes to penetrate blood vessels to infiltrate the damaged tissues. The specific steps are as follows:
(§1) 1) Culture of HMEC-1 cells: HMEC-1 cells are cultured in MCDB131 medium (U.S. Sigma) that contain 10% fetal bovine serum (FBS, Zhejiang Tianhang Biotechnology Co., Ltd.), double antibody (100 U/mL penicillin and 100 μg/mL streptomycin), 1 μg/mL hydrocortisone (Sangon Biotech (Shanghai) Co., Ltd.) and 10 ng/mL human recombinant growth factor (hEGF, Sangon Biotech (Shanghai) Co., Ltd.) at 37° C., 5% CO2, and 100% RH.
2) HMEC-1 cells are inoculated into a 24-well plate, and cultured in a cell incubator at 37° C., 5% CO2, and 100% RH. When the cells grow to 80% abundance, different concentrations of drugs are added for 3 h (1 μM Celastrol as a positive control drug). At the end of treatment, 1 μg/mL LPS is added to activate the NF-κB signaling pathway for 12 hours. After activation, the supernatant medium is discarded, and washed three times with PBS, and 100 μL of 0.25% pancreatin (containing 0.5 mM EDTA) is added to digest in a 37° C. incubator for 3 min. When most of cells are shed, 150 μL of MCDB131 complete medium is added to terminate the digestion, shaken for 3 min, then cells are transferred to a V-shaped 96-well plate (Corning), centrifuged at 4° C., 3000 rpm for 3 min to precipitate cells. Then the supernatant medium is discarded, 100 μL of pH=7.4 buffer A (PBS+0.5% BSA+1 mM MgCl2) is added to each well, to wash once, centrifuged at 4° C., 3000 rpm for 3 min, and the buffer A is aspirated. To each well, 100 μL of PBS solution containing 5% bovine serum albumin is added, and shaken and blocked at 120 rpm for 30 min at room temperature; after blocking, centrifuged at 4° C. and 2000 rpm for 3 min, and the supernatant is discarded, 20 μl of buffer A containing 5 μg/mL of primary antibody anti-ICAM-1 antibody LB-2, shaken and incubated at room temperature at 120 rpm for 1 h, using the buffer A without adding anti-ICAM-1 antibody LB-2 as the negative control. By detecting anti-ICAM-1 fluorescence value by flow cytometry, the expression of ICAM-1 protein in HMEC-1 cells is detected indirectly. Three duplicate wells are established for each concentration. PBS is set as a blank control, 1 uM of Celastrol is set as a positive control, to analyze the inhibitory effect of different concentrations of drugs on the expression level of ICAM-1.
as §1, with “U/ml” for “U/mL”, “μg/ml” for “μg/mL”, “Biotech)” for “Biotech (Shanghai) Co., Ltd.)”, “ng/ml” for “ng/mL”
HMEC-1 cells are inoculated into a 24-well plate, and cultured in a cell incubator at 37° C., 5% CO2, and 100% RH. When the cells grow to 80% abundance, different concentrations of drugs are added for 3 h (1 μM Celastrol as a positive control drug). At the end of treatment, 1 μg/mL LPS is added to activate the NF-κB signaling pathway for 12 hours. After activation, the supernatant medium is discarded, and washed three times with PBS, and 100 μL of 0.25% pancreatin (containing 0.5 mM EDTA) is added to digest in a 37° C. incubator for 3 min. When most of cells are shed, 150 μL of MCDB131 complete medium is added to terminate the digestion, shaken for 3 min, then cells are transferred to a V-shaped 96-well plate (Corning), centrifuged at 4° C., 3000 rpm for 3 min to precipitate cells. Then the supernatant medium is discarded, 100 μL of pH=7.4 buffer A (PBS+0.5% BSA+1 mM MgCl2) is added to each well, to wash once, centrifuged at 4° C., 3000 rpm for 3 min, and the buffer A is aspirated. […]

[2] = tested on: obese mice of about 45 g; assay: GA-02 intragastric administration in obese mice; type: in vivo; details: 40 mg/kg intragastric, two weeks
Procedure: (§2) The lean mice of about 25 g, mildly obese mice of weighing about 30 g, and obese mice of about 45 g are given blank vehicle and high-dose GA-02 (40 mg/kg) by intragastric administration, respectively.

[3] = tested on: mildly obese mice of weighing about 30 g; assay: GA-02 intragastric administration in mildly obese mice; type: in vivo; details: 40 mg/kg intragastric, two weeks
Procedure: as §2

[4] = tested on: Leptin receptor-deficient db/db mice; assay: GA-02 in db/db mice, intraperitoneal; type: in vivo; details: 20 mg/kg i.p., 14 days
Procedure: Eight-week-old male ob/ob and db/db mice are adapted to the environment under normal conditions for one week. The animals are grouped according to the body weight and blood glucose, 2 cages in each group, 5 animals in each cage. Mice are acclimatized with the vehicle for 3 days in the experimental group (25 μL DMSO/day) and are injected with drugs by intraperitoneal injection (20 mg/kg; 25 μL per injection). Mice in the control group are injected with the same volume of vehicle. The administration starts from 18:00 every day for 14 consecutive days. The body weight and food intake of mice are recorded every day.

[5] = tested on: mRNA of IL-1β, TNF-α, IL-6 and MCP-1; assay: qRT-PCR of inflammatory factor mRNA; type: cell-based; details: activated by LPS
Procedure: FIGS. 10A-10C show the inhibition verification effect chart of GA-02 in Example 5, where FIG. 10A: GA-02 inhibited LPS-induced ICAM-1 expression activity. The inflammatory pathway of HMEC-1 cell was activated by 1 μg/mL LPS, to determine the effect of Celastrol and GA-02 on the expression of ICAM-1 induced by LPS. FIG. 10B: The effect of GA-02 on NF-κB signaling. The NF-κB luciferase reporter plasmid was used to transfect HEK293 cells, and the effects of Celastrol and GA-02 on the NF-κB activity induced by TNF-α were determined; FIG. 10C: qRT-PCR was used to detect mRNA relative expressions of IL-1β, TNF-α, IL-6 and MCP-1.
ICAM-1 is a downstream effector molecule regulated by NF-κB signaling pathway, and NF-κB plays an important role in regulating the expression of ICAM-1 gene. Celastrol can inhibit the activation of the LPS-induced IKK/NF-κB signaling pathway. In order to validate that GA-02 functions through the IKK/NF-κB signaling pathway, we constructed an NF-κB luciferase reporter gene system to validate the inhibitory activity of Celastrol and GA-02 on the luciferase reporter gene. […] In addition, both Celastrol and GA-02 could down-regulate the mRNA transcription levels of inflammatory factors IL-1β, TNF-α, IL-6 and MCP-1 activated by LPS.

`CC1(C(=O)O)CCC2(C)CCC3(C)C(=CC(=O)C4C5(C)C=C(O)C(=O)C(C)(C)C5CCC43C)C2C1` (centres unmarked) [GA-02, 3,11-dicarbonyl-1,12-diene-2-hydroxy-oleanane-30 carboxylic acid] was tested, and the “anti-inflammatory activity compared with reference compounds” value [1] was “effectively improved compared with 18β-glycyrrhetinic acid”, the “anti-inflammatory activity, times lower than that of Celastrol” value [1] was 10 times and the “ICAM-1 inhibitory activity compared with Celastrol” value ([1]; 10 μM) was “equivalent to 1 μM Celastrol”. For the same compound, the “ICAM-1 inhibitory activity, concentration dependence” value ([1]; different concentrations) was “concentration-dependent ICAM-1 inhibitory activity”, the “average daily food intake reduced by” value [2] was 50% and the “body weight reduced by” value [2] was 21%. The “average daily food intake reduced by” value [3] was 30%, the “body weight reduced by” value [3] was 16% and the body weight increase [4] was 15%. The “food intakes compared with the vehicle control group” value [4] was “do not change significantly” and the “mRNA transcription levels of inflammatory factors IL-1β, TNF-α, IL-6 and MCP-1” value [5] was “down-regulate”.
